Measurements as given in ChEMBL document CHEMBL3407431, “Structure-based modification of 3-/4-aminoacetophenones giving a profound change of activity on tyrosinase: from potent activators to highly efficient inhibitors” (Eur J Med Chem, 2015).
Active and inactive are the calls of the source. The calls are words filed in the database; no cut-off is given here.

molecular target: T1, Tyrosinase (Agaricus bisporus) (UniProt O42713); experiment: Activation of mushroom tyrosinase at 0.12 to 75 ug/L relative to control
T1 sequence (whole entry): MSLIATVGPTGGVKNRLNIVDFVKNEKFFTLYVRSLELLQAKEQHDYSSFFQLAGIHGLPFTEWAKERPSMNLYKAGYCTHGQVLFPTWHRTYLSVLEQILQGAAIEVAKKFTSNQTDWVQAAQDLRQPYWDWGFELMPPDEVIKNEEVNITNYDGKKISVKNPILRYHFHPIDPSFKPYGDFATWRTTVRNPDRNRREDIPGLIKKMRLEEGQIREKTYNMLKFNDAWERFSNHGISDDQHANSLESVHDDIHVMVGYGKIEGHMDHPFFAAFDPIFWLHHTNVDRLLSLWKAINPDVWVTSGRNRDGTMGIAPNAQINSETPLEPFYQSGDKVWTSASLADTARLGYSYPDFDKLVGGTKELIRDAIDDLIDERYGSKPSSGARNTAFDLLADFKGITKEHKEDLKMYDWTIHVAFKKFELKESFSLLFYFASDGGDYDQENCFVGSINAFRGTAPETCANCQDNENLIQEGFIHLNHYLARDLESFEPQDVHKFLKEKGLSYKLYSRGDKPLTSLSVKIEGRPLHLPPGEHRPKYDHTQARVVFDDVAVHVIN

Activity [%]	Structure (SMILES)
12	OC[C@H]1O[C@@H](Oc2c(O)cc(O)cc2/C=C/c2ccc(O)cc2)[C@H](O)[C@@H](O)[C@@H]1O

molecular target: T1, Tyrosinase (Agaricus bisporus); experiment: Activation of mushroom tyrosinase using L-DOPA as substrate at 100 umol/L preincubated for 30 mins followed by substrate addition measured for 1 min

Activity	Structure (SMILES)
Active	CC(=O)Nc1ccc(C(C)=O)cc1

molecular target: T1, Tyrosinase (Agaricus bisporus); experiment: Reversible inhibition of mushroom tyrosinase using L-DOPA as substrate at 0.1 to 0.5 uM

inhibition	Structure (SMILES)
Active	C/C(=N\NC(N)=S)c1ccc(NC(=O)c2ccccc2)cc1

molecular target: T1, Tyrosinase (Agaricus bisporus); experiment: Reversible inhibition of mushroom tyrosinase using L-DOPA as substrate at 1 to 2 uM

inhibition	Structure (SMILES)
Active	C/C(=N\NC(N)=S)c1cccc(NC(=O)c2ccccc2)c1

molecular target: T1, Tyrosinase (Agaricus bisporus); experiment: Non-competitive inhibition of mushroom tyrosinase using L-DOPA as substrate at 0.1 to 0.5 uM by Lineweaver-Burk plot analysis

inhibition	Structure (SMILES)
Active	C/C(=N\NC(N)=S)c1ccc(NC(=O)c2ccccc2)cc1

molecular target: T1, Tyrosinase (Agaricus bisporus); experiment: Competitive-uncompetitive mixed-2 type inhibition of mushroom tyrosinase using L-DOPA as substrate at 1 to 2 uM by Lineweaver-Burk plot analysis

inhibition	Structure (SMILES)
Active	C/C(=N\NC(N)=S)c1cccc(NC(=O)c2ccccc2)c1

molecular target: T2, Tyrosinase (Agaricus bisporus, UniProt O42713)
T2 sequence (O42713 whole entry): T1 sequence (whole entry)
Description: Inhibition of mushroom tyrosinase diphenolase activity using L-DOPA as substrate preincubated for 30 mins followed by substrate addition measured for 1 min

Structure (SMILES)	IC50 [nM]
C/C(=N\NC(N)=S)c1ccc(NC(=O)C(C)C)cc1	814
COC(=O)Nc1ccc(/C(C)=N/NC(N)=S)cc1	498
C/C(=N\NC(N)=S)c1ccc(NC(=O)C(Cl)(Cl)Cl)cc1	406
CCCCC(=O)Nc1ccc(/C(C)=N/NC(N)=S)cc1	492
C/C(=N\NC(N)=S)c1ccc(NC(=O)c2ccccc2)cc1	291
C/C(=N\NC(N)=S)c1ccc(NC(=O)Cc2ccccc2)cc1	578
C/C(=N\NC(N)=S)c1ccc(NC(=O)c2ccc(F)cc2)cc1	610
CCCC(=O)Nc1ccc(/C(C)=N/NC(N)=S)cc1	644
CCCCCCC(=O)Nc1ccc(/C(C)=N/NC(N)=S)cc1	356
CCC(=O)Nc1ccc(/C(C)=N/NC(N)=S)cc1	372
COc1ccc(C(=O)Nc2ccc(/C(C)=N/NC(N)=S)cc2)cc1	1140
C/C(=N\NC(N)=S)c1ccc(NC(=O)C(F)(F)F)cc1	1340
CCCCCC(=O)Nc1ccc(/C(C)=N/NC(N)=S)cc1	762
C/C(=N\NC(N)=S)c1cccc(NC(=O)Cc2ccccc2)c1	1790

Second part, the compound after the results:

IC50 [nM]	Structure (SMILES)
6110	C/C(=N\NC(N)=S)c1cccc(N)c1
508	CC(=O)Nc1ccc(/C(C)=N/NC(N)=S)cc1
2200	CCCCCCC(=O)Nc1cccc(/C(C)=N/NC(N)=S)c1
1540	CCCCC(=O)Nc1cccc(/C(C)=N/NC(N)=S)c1
4120	CC(=O)Nc1cccc(/C(C)=N/NC(N)=S)c1
1690	CCCCCC(=O)Nc1cccc(/C(C)=N/NC(N)=S)c1
4410	C/C(=N\NC(N)=S)c1cccc(NC(=O)C(C)(C)C)c1
1530	C/C(=N\NC(N)=S)c1cccc(NC(=O)c2ccccc2)c1
2620	C/C(=N\NC(N)=S)c1ccc(N)cc1
5760	C/C(=N\NC(N)=S)c1cccc(NC(=O)C(F)(F)F)c1
3620	C/C(=N\NC(N)=S)c1cccc(NC(=O)C(C)C)c1
